Patent US20210317102A1, “INHIBITORS OF INTEGRATED STRESS RESPONSE PATHWAY” (Praxis Biotech LLC, priority 2019, published 2021)

Assays:
[1] = system: Chinese hamster ovary (CHO) cells; assay: Protein synthesis assay (puromycin incorporation, western blot); type: cell-based; details: 2 hours, media alone = 100%; for activity at 1 µM: Cricetulus griseus, unstressed CHO cells (without Tg), 1 μM test compound, read-out: % Protein synthesis relative to untreated (1 μM test compound); for % Recovery of protein synthesis (1 μM test compound): stressed CHO cells, 300 nM Tg plus 1 μM test compound, Tg alone = 0%
Experimental: Chinese hamster ovary (CHO) cells were maintained at 37° C. and 5% CO2 in Dulbecco's Modified Eagle's Media (DMEM) supplemented with 10% fetal bovine serum, 2 mM L-glutamine, 100 U/ml penicillin, and 100 μg/ml streptomycin. After reaching 80% of confluence, cells were detached and seeded on 6 well plates in complete media, allowed to recover overnight and treated for 2 hours with 1 μM of the test compound (to assess protein synthesis levels in unstressed condition), or for 2 hours with 300 nM Tg in the presence of 1 μM of the test compound (to assess the recovery of protein synthesis in a stressed condition). Cells with Tg alone were used as controls.
After the 2 hours treatments, media were replaced by adding 10 μg/ml puromycin (Sigma Aldrich #P8833) in complete media for 30 min. Media were removed and cells were lysed with SDS-PAGE lysis buffer. Lysates were transferred to 1.5 ml tubes and sonicated for 3 min and total protein amount were quantified using BCA Protein Assay Kit (Pierce). Equal amount of protein (30 μg) was loaded on SDS-PAGE gels. Proteins were transferred onto […] PVDF membranes (BioRad) and probed with primary antibodies diluted in Tris-buffered saline supplemented with 0.1% Tween 20 (Merck #S6996184 505) and 3% bovine serum albumin (Rockland #BSA-50).
Puromycin (12D10) (Merck #MABE343) and j-actin (Sigma Aldrich #A5441) antibodies were used as primary antibody. A HRP-conjugated secondary antibody (Rockland) was employed to detect immune-reactive bands using enhanced chemiluminescence (ECL Western Blotting Substrate, Pierce). Quantification of protein bands was done by densitometry using ImageJ software.
Percent increase of protein synthesis in unstressed cells (without Tg treatment) in the presence of media alone or certain test compounds is shown in Table 3. The percentage levels were normalized to the media alone condition, which correspond to 100% protein synthesis.
Percent recovery of protein synthesis in stressed cells (with Tg treatment) due to the test compounds at 1 μM is also shown in Table 3. The levels were normalized to the media alone and Tg alone conditions, which correspond to 100% and 0% respectively.

[2] = system: ATF4 expression, HEK293T cells carrying the ATF4 luciferase reporter; assay: ATF4 expression inhibition assay (ATF4 luciferase reporter); type: cell-based; details: Homo sapiens, HEK-293T, 100 nM thapsigargin, 3 hours
Experimental: The ATF4 reporter was prepared by fusing the human full length 5′UTR of ATF4 (NCBI Accession No. BC022088.2) upstream of the firefly luciferase coding sequence lacking the initiator methionine. The fused sequence was cloned into pLenti-EFla-C-Myc-DDK-IRES-Puro cloning vector (Origen #PS100085) using standard methods. Virus production was carried out by using Lenti-X™ Packaging Single Shots Protocol (Clonetech #631276). Viral particles were used to transduce HEK293T cells (ATCC #CRL-3216, ATCC Manassas, Va.), which were subsequently selected with puromycin to generate stable cell line. Cells were maintained at 37° C. and 5% CO2 in DMEM-F12 (Hyclone #SH30023.02) supplemented with 10% heat-inactivated fetal bovine serum (Gibco #16000-044), 2 mM L-glutamine (Gibco #25030-081), 100 U/ml penicillin, and 100 μg/ml streptomycin (Gibco #^15140-122).
HEK293T cells carrying the ATF4 luciferase reporter were plated on 96-well plates (Nunc) at 10,000 cells per well. Cells were treated two days after seeding with 100 nM thapsigargin (Tg) (Sigma-Aldrich #T9033) in the presence of different concentrations of selected compounds ranging from 1 nM to 10 μM. Cells without treatment or cells treated with Tg alone were used as controls. Assay plates containing cells were incubated for 3 hours at 37° C.
Luciferase reactions were performed using Luciferase Assay System (Promega #E1501) as specified by the manufacturer. Luminescence was read with an integration time of 1 s and a gain of 110 using a Cytation-5 multi-mode microplate reader (BioTek). Relative luminescence units were normalized to Tg treatment (0% inhibition) and untreated cells (100% inhibition) and the percentage of ATF4 inhibition was calculated.
Accordingly, inhibition of ATF4 expression as a result of the test compound indicates suppression of the ISR pathway.

SMILES | activity at 1 µM [1] [%] | % Recovery of protein synthesis (1 μM test compound) [1] [%] | IC50 [2] [nM]
O=C(COc1ccc(Cl)c(F)c1)N[C@H]1CC[C@H](CNC(=O)c2cccc(Cl)c2)CC1 [Compound 22, trans-3-chloro-N-((4-(2-(4-chloro-3-fluorophenoxy)acetamido)cyclohexyl)methyl)benzamide] | 83.3 | 54.6 | 10.9
O=C(COc1ccc(Cl)c(F)c1)N[C@H]1CC[C@H](CNC(=O)c2ccc(Cl)c(F)c2)CC1 [Compound 23, trans-4-chloro-N-((4-(2-(4-chloro-3-fluorophenoxy)acetamido)cyclohexyl)methyl)-3-fluorobenzamide] | 93 | 74.1 | 1.27
O=C(COc1ccc(Cl)c(F)c1)N[C@H]1CC[C@H](CNC(=O)c2ccc3ccc(Cl)cc3n2)CC1 [Compound 24, trans-7-chloro-N-((4-(2-(4-chloro-3-fluorophenoxy)acetamido)cyclohexyl)methyl)quinoline-2-carboxamide] | 138 | 49.1 | > 1000
O=C(N[C@H]1CC[C@H](CNC(=O)c2cc3cc(Cl)ccc3o2)CC1)c1ccc2cc(Cl)ccc2n1 [Compound 25, trans-6-chloro-N-(4-((5-chlorobenzofuran-2-carboxamido)methyl)cyclohexyl)quinoline-2-carboxamide] | 266 | 223.3 | 1.56
O=C(NC[C@H]1CC[C@H](NC(=O)c2cc3cc(Cl)ccc3o2)CC1)c1cc2cc(Cl)ccc2o1 [Compound 26, trans-5-chloro-N-((4-(5-chlorobenzofuran-2-carboxamido)cyclohexyl)methyl)benzofuran-2-carboxamide] | 173 | 113.4 | 0.6
O=C(NC[C@H]1CC[C@H](NCCOc2ccc(Cl)c(F)c2)CC1)c1cc2cc(Cl)ccc2o1 [Compound 27, trans-5-chloro-N-((4-((2-(4-chloro-3-fluorophenoxy)ethyl)amino)cyclohexyl)methyl)benzofuran-2-carboxamide] | 126 | 38.1 | < 1000
O=C(NC[C@H]1CC[C@H](NC(=O)COc2ccc(Cl)c(F)c2)CC1)Nc1ccc(Cl)cc1 [Compound 28, trans-2-(4-chloro-3-fluorophenoxy)-N-(4-((3-(4-chlorophenyl)ureido)methyl)cyclohexyl)acetamide] | 68 | 28.6 | 3.1
O=C(Cc1ccc(Cl)cc1)NC[C@H]1CC[C@H](NC(=O)COc2ccc(Cl)c(F)c2)CC1 [Compound 29, trans-2-(4-chloro-3-fluorophenoxy)-N-(4-((2-(4-chlorophenyl)acetamido)methyl)cyclohexyl)acetamide] | 70.9 | 1.3 | 12.5
O=C(COc1cccc(Cl)c1)NC[C@H]1CC[C@H](NC(=O)COc2ccc(Cl)c(F)c2)CC1 [Compound 30, trans-2-(4-chloro-3-fluorophenoxy)-N-(4-((2-(3-chlorophenoxy)acetamido)methyl)cyclohexyl)acetamide] | 110 | 0.4 | < 1000
CC(C)(C(=O)NC[C@H]1CC[C@H](NC(=O)COc2ccc(Cl)cc2)CC1)c1ccc(Cl)cc1 [Compound 31, trans-N-((4-(2-(4-chlorophenoxy)acetamido)cyclohexyl)methyl)-2-(4-chlorophenyl)-2-methylpropanamide] | 120 | 66.2 | < 1000
CC(C)(C(=O)NC[C@H]1CC[C@H](NC(=O)COc2ccc(Cl)c(F)c2)CC1)c1ccc(Cl)cc1 [Compound 32, trans-N-((4-(2-(4-chloro-3-fluorophenoxy)acetamido)cyclohexyl)methyl)-2-(4-chlorophenyl)-2-methylpropanamide] | 162 | 69.7 | > 1000
O=C(COc1ccc(Cl)cc1)N[C@H]1CC[C@H](CNC2CCc3cc(Cl)ccc3C2)CC1 (stereo partly drawn) [Compound 33, trans-N-(4-(((6-chloro-1,2,3,4-tetrahydronaphthalen-2-yl)amino)methyl)cyclohexyl)-2-(4-chlorophenoxy)acetamide] | 599 | – | > 1000
O=C(COc1ccc(Cl)cc1)N[C@H]1CC[C@H](NC(=O)C2COc3ccc(Cl)cc3N2)CC1 (stereo partly drawn) [Compound 34, trans-6-chloro-N-(4-(2-(4-chlorophenoxy)acetamido)cyclohexyl)-3,4-dihydro-2H-benzo[b][1,4]oxazine-3-carboxamide] | 137 | 105.2 | > 1000
CN1CC(C(=O)N[C@H]2CC[C@H](NC(=O)COc3ccc(Cl)cc3)CC2)Oc2ccc(Cl)cc21 (stereo partly drawn) [Compound 83, trans-6-chloro-N-(4-(2-(4-chlorophenoxy)acetamido)cyclohexyl)-4-methyl-3,4-dihydro-2H-benzo[b][1,4]oxazine-2-carboxamide] | 148 | 98.4 | 19.3
O=C(Cc1ccc(Cl)cc1)NC[C@H]1CC[C@H](NC(=O)COc2ccc(Cl)cc2)CC1 [Compound 84, trans-2-(4-chlorophenoxy)-N-(4-((2-(4-chlorophenyl)acetamido)methyl)cyclohexyl)acetamide] | 135 | 35.0 | 18.3
CN1C[C@H](C(=O)N[C@H]2CC[C@H](NC(=O)COc3ccc(Cl)cc3)CC2)Oc2ccc(Cl)cc21 [Compound 85, trans-(R)-6-chloro-N-(4-(2-(4-chlorophenoxy)acetamido)cyclohexyl)-4-methyl-3,4-dihydro-2H-benzo[b][1,4]oxazine-2-carboxamide] | 124 | 31.6 | 44
CN1C[C@@H](C(=O)N[C@H]2CC[C@H](NC(=O)COc3ccc(Cl)cc3)CC2)Oc2ccc(Cl)cc21 [Compound 86, trans-(S)-6-chloro-N-(4-(2-(4-chlorophenoxy)acetamido)cyclohexyl)-4-methyl-3,4-dihydro-2H-benzo[b][1,4]oxazine-2-carboxamide] | 125 | 108.1 | 12.3
CCN1CC(C(=O)N[C@H]2CC[C@H](NC(=O)COc3ccc(Cl)cc3)CC2)Oc2ccc(Cl)cc21 (stereo partly drawn) [Compound 87, trans-6-chloro-N-(4-(2-(4-chlorophenoxy)acetamido)cyclohexyl)-4-ethyl-3,4-dihydro-2H-benzo[b][1,4]oxazine-2-carboxamide] | 147 | 71.8 | 90.2
CCN1C[C@H](C(=O)N[C@H]2CC[C@H](NC(=O)COc3ccc(Cl)cc3)CC2)Oc2ccc(Cl)cc21 [Compound 88, trans-(R)-6-chloro-N-(4-(2-(4-chlorophenoxy)acetamido)cyclohexyl)-4-ethyl-3,4-dihydro-2H-benzo[b][1,4]oxazine-2-carboxamide] | 105 | 28.6 | > 1000
